According to ChEMBL document CHEMBL6096689, “Structure-Guided Development of ClpP Agonists with Potent Therapeutic Activities against Staphylococcus aureus Infection” (J Med Chem, 2025):
≈ marks a conversion by molar mass, not a printed value.

How the values were obtained:
[1] = molecular target: T1, ATP-dependent Clp protease proteolytic subunit (Staphylococcus aureus (strain NCTC 8325), UniProt Q2G036); assay: Agonist activity at Staphylococcus aureus ClpP extracted from Escherichia coli BL21 (DE3) cells using alpha-casein as substrate assessed as substrate hydrolysis preincubated for 15 mins followed by substrate addition and measured after 2 hrs by SDS-PAGE analysis
T1 sequence (Q2G036 whole entry): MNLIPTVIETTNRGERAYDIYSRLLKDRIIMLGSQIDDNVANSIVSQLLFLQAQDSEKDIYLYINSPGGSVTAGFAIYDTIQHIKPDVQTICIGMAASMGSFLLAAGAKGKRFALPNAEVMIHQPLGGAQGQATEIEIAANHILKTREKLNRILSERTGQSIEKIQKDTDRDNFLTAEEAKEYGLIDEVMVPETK

Staphylococcus aureus [2] = assay: microbe, parasite or virus in culture; type: functional; conditions: Newman, time 18 hrs
Description: Antibacterial activity against Staphylococcus aureus Newman assessed as inhibition of visible growth of bacteria incubated for 18 hrs by absorbance based analysis

Staphylococcus aureus [3] = assay: microbe, parasite or virus in culture; type: functional; conditions: time 18 hrs
Description: Antibacterial activity against multidrug-resistant Staphylococcus aureus clinical isolate XJ025 assessed as inhibition of visible growth of bacteria incubated for 18 hrs by absorbance based analysis

Staphylococcus aureus [4] = assay: microbe, parasite or virus in culture; type: functional; conditions: NRS-1, time 18 hrs
Description: Antibacterial activity against methicillin-resistant Staphylococcus aureus NRS-1 assessed as inhibition of visible growth of bacteria incubated for 18 hrs by absorbance based analysis

Staphylococcus aureus [5] = assay: microbe, parasite or virus in culture; type: functional; conditions: time 18 hrs; remark: listed apart in the source
Description: Antibacterial activity against multidrug-resistant Staphylococcus aureus clinical isolate XJ049 assessed as inhibition of visible growth of bacteria incubated for 18 hrs by absorbance based analysis

Staphylococcus aureus [6] = assay: microbe, parasite or virus in culture; type: functional; conditions: time 18 hrs; remark: listed apart in the source
Description: Antibacterial activity against multidrug-resistant Staphylococcus aureus clinical isolate XJ051 assessed as inhibition of visible growth of bacteria incubated for 18 hrs by absorbance based analysis

Staphylococcus aureus [7] = assay: microbe, parasite or virus in culture; type: functional; conditions: USA300, time 18 hrs
Description: Antibacterial activity against methicillin-resistant Staphylococcus aureus USA300 assessed as inhibition of visible growth of bacteria incubated for 18 hrs by absorbance based analysis

Staphylococcus aureus [8] = assay: microbe, parasite or virus in culture; type: functional; conditions: NRS-271, time 18 hrs
Description: Antibacterial activity against methicillin-resistant Staphylococcus aureus NRS-271 assessed as inhibition of visible growth of bacteria incubated for 18 hrs by absorbance based analysis

Staphylococcus aureus [9] = assay: microbe, parasite or virus in culture; type: functional; conditions: time 18 hrs; remark: listed apart in the source
Description: Antibacterial activity against multidrug-resistant Staphylococcus aureus clinical isolate XJ009 assessed as inhibition of visible growth of bacteria incubated for 18 hrs by absorbance based analysis

Staphylococcus aureus [10] = assay: microbe, parasite or virus in culture; type: functional; conditions: NRS-108, time 18 hrs
Description: Antibacterial activity against methicillin-resistant Staphylococcus aureus NRS-108 assessed as inhibition of visible growth of bacteria incubated for 18 hrs by absorbance based analysis

Staphylococcus aureus [11] = assay: microbe, parasite or virus in culture; type: functional; conditions: time 18 hrs; remark: listed apart in the source
Description: Antibacterial activity against multidrug-resistant Staphylococcus aureus clinical isolate XJ052 assessed as inhibition of visible growth of bacteria incubated for 18 hrs by absorbance based analysis

Staphylococcus aureus [12] = assay: microbe, parasite or virus in culture; type: functional; conditions: NRS-70, time 18 hrs
Description: Antibacterial activity against methicillin-resistant Staphylococcus aureus NRS-70 assessed as inhibition of visible growth of bacteria incubated for 18 hrs by absorbance based analysis

Structure (SMILES)	EC50 [1] [nM]	MIC (Staphylococcus aureus [2]) [µg/mL]	other results
O=C1[C@H](CC2CCCCC2)N2C(=O)CCN(C(=O)NCCCC(F)(F)F)[C@H]2CN1Cc1cccc2ccccc12	1600	2 (≈ 3.58 µM)	–
C#CC[C@H]1C(=O)N(Cc2cccc3ccccc23)C[C@@H]2N(C(=O)NCCCC(F)(F)F)CCC(=O)N21	1900	4 (≈ 7.99 µM)	–
CCC[C@@H]1C[C@@H](C(=O)N[C@@H]([C@H]2O[C@H](SC)[C@H](O)[C@@H](O)[C@H]2O)[C@H](C)Cl)N(C)C1 [CLINDAMYCIN]	–	0.016 (≈ 0.0376 µM)	MIC (Staphylococcus aureus [3]): 0.016 µg/mL (≈ 0.0376 µM); MIC (Staphylococcus aureus [4]): 64 µg/mL (≈ 151 µM); MIC (Staphylococcus aureus [5]): > 128 µg/mL; MIC (Staphylococcus aureus [6]): 0.016 µg/mL (≈ 0.0376 µM); MIC (Staphylococcus aureus [7]): 0.008 µg/mL (≈ 0.0188 µM); MIC (Staphylococcus aureus [8]): 0.016 µg/mL (≈ 0.0376 µM); MIC (Staphylococcus aureus [9]): 128 µg/mL (≈ 301 µM); MIC (Staphylococcus aureus [10]): 128 µg/mL (≈ 301 µM); MIC (Staphylococcus aureus [11]): > 128 µg/mL; MIC (Staphylococcus aureus [12]): 128 µg/mL (≈ 301 µM)
NC[C@H]1O[C@H](O[C@H]2[C@H](O)[C@@H](O[C@H]3O[C@H](CO)[C@@H](O)[C@H](N)[C@H]3O)[C@H](N)C[C@@H]2N)[C@H](O)[C@@H](O)[C@@H]1O [KANAMYCIN]	–	4 (≈ 8.26 µM)	MIC (Staphylococcus aureus [3]): > 128 µg/mL; MIC (Staphylococcus aureus [4]): > 128 µg/mL; MIC (Staphylococcus aureus [5]): > 128 µg/mL; MIC (Staphylococcus aureus [6]): > 128 µg/mL; MIC (Staphylococcus aureus [7]): > 128 µg/mL; MIC (Staphylococcus aureus [8]): 2 µg/mL (≈ 4.13 µM); MIC (Staphylococcus aureus [9]): > 128 µg/mL; MIC (Staphylococcus aureus [10]): 64 µg/mL (≈ 132 µM); MIC (Staphylococcus aureus [11]): > 128 µg/mL; MIC (Staphylococcus aureus [12]): 64 µg/mL (≈ 132 µM)
O=C1[C@H](CC2CC2)N2C(=O)CCN(C(=O)NCCCC(F)(F)F)[C@H]2CN1Cc1cccc2ccccc12	3500	4 (≈ 7.74 µM)	–
CN[C@@H]1[C@@H](O)[C@@H](O[C@@H]2[C@@H](O)[C@H](O[C@H]3O[C@H](CN)CC[C@H]3N)[C@@H](N)C[C@H]2N)OC[C@]1(C)O [GENTAMICIN C1A]	–	0.5 (≈ 1.11 µM)	MIC (Staphylococcus aureus [3]): 128 µg/mL (≈ 285 µM); MIC (Staphylococcus aureus [4]): > 128 µg/mL; MIC (Staphylococcus aureus [5]): 128 µg/mL (≈ 285 µM); MIC (Staphylococcus aureus [6]): > 128 µg/mL; MIC (Staphylococcus aureus [7]): 1 µg/mL (≈ 2.22 µM); MIC (Staphylococcus aureus [8]): 0.5 µg/mL (≈ 1.11 µM); MIC (Staphylococcus aureus [9]): 64 µg/mL (≈ 142 µM); MIC (Staphylococcus aureus [10]): 0.25 µg/mL (≈ 0.556 µM); MIC (Staphylococcus aureus [11]): > 128 µg/mL; MIC (Staphylococcus aureus [12]): 0.5 µg/mL (≈ 1.11 µM)
CCCNC(=O)N1CCC(=O)N2[C@@H]([C@@H](C)CC)C(=O)N(Cc3cccc4ccccc34)C[C@H]12	2200	16 (≈ 35.5 µM)	–
CC(C)C[C@H]1C(=O)N(Cc2cccc3ccccc23)C[C@@H]2N(C(=O)NCCCC(F)(F)F)CCC(=O)N21	1300	4 (≈ 7.71 µM)	–
CC[C@@H](C)[C@H]1C(=O)N(Cc2cccc3ccccc23)C[C@@H]2N(C(=O)NCc3ccc(Br)cc3)CCC(=O)N12	1200	4 (≈ 6.93 µM)	–
CC[C@H](C)[C@H]1C(=O)N(Cc2cccc3ccccc23)C[C@@H]2N(C(=O)NCCCCl)CCC(=O)N12	1300	4 (≈ 8.25 µM)	–
O=C1[C@H](Cc2ccccc2)N2C(=O)CCN(C(=O)NCc3ccccc3)[C@H]2CN1Cc1cccc2ccccc12	2900	8 (≈ 15 µM)	–
O=C1[C@H](Cc2ccc(O)cc2)N2C(=O)CCN(C(=O)NCc3ccccc3)[C@H]2CN1Cc1cccc2ccccc12	1100	16 (≈ 29.2 µM)	–
C[C@H]1C(=O)N(Cc2cccc3ccccc23)C[C@@H]2N(C(=O)NCc3ccccc3)CCC(=O)N21	2500	16 (≈ 35 µM)	–
CC[C@H](C)[C@H]1C(=O)N(Cc2cccc3ccccc23)C[C@@H]2N(C(=O)NCCCCCCl)CCC(=O)N12	> 40000	> 128	–
[N-]=[N+]=NCCC[C@H]1C(=O)N(Cc2cccc3ccccc23)C[C@@H]2N(C(=O)NCCCC(F)(F)F)CCC(=O)N21	1500	2 (≈ 3.67 µM)	–

Continued by falling EC50 [1], values first:

EC50 [1] [nM]	MIC (Staphylococcus aureus [2]) [µg/mL]	Structure (SMILES)	other results
5200	> 128	CC[C@H](C)[C@H]1C(=O)N(Cc2cccc3ccccc23)C[C@@H]2N(C(=O)NCCc3ccco3)CCC(=O)N12	–
3100	8 (≈ 15.5 µM)	CSCC[C@H]1C(=O)N(Cc2cccc3ccccc23)C[C@@H]2N(C(=O)NCc3ccccc3)CCC(=O)N21	–
2200	4 (≈ 7.34 µM)	O=C1[C@H](CC2CCCC2)N2C(=O)CCN(C(=O)NCCCC(F)(F)F)[C@H]2CN1Cc1cccc2ccccc12	–
1800	2 (≈ 4.18 µM)	CCC(C)CNC(=O)N1CCC(=O)N2[C@@H]([C@@H](C)CC)C(=O)N(Cc3cccc4ccccc34)C[C@H]12 (stereo partly specified)	–
1010	0.5 (≈ 0.932 µM)	CC[C@H](C)[C@H]1C(=O)N(Cc2ccc(F)c3ccccc23)C[C@@H]2N(C(=O)NCCCC(F)(F)F)CCC(=O)N12	–
900	4 (≈ 8.02 µM)	CC[C@H](C)[C@H]1C(=O)N(Cc2cccc3ccccc23)C[C@@H]2N(C(=O)NCc3ccccc3)CCC(=O)N12	–
780	16 (≈ 29.8 µM)	CC[C@H](C)[C@H]1C(=O)N(Cc2cc(Cl)cc(Cl)c2)C[C@@H]2N(C(=O)NCCCC(F)(F)F)CCC(=O)N12	–
